Reference: ChEMBL document CHEMBL4651402, “Screening of ~5500 FDA-approved drugs and clinical candidates for anti-SARS-CoV-2 activity” (2021)

System: SARS-CoV-2
Assay: microbe, parasite or virus in culture
Details: Severe acute respiratory syndrome coronavirus 2, Vero C1008, 48 h

SMILES | IC50 [µM] | IC50 (read-out: pIC50 (converted)) [µM]
C1CCC2(C1)C1CN(CC3CC3)CC2CN(CC2CC2)C1 | > 20 | > 20
CO[C@H]1C[C@H](O[C@H]2[C@H](C)[C@@H](O[C@@H]3O[C@H](C)C[C@H](N(C)C)[C@H]3OC(C)=O)[C@@H](C)C[C@@]3(CO3)C(=O)[C@H](C)[C@H](OC(C)=O)[C@@H](C)[C@@H](C)OC(=O)[C@@H]2C)O[C@@H](C)[C@@H]1OC(C)=O | > 20 | > 20
ClC1C(Cl)C(Cl)C(Cl)C(Cl)C1Cl (stereo not given) | > 20 | > 20
N#Cc1ccccc1-c1cc(-c2ccccn2)cn(-c2ccccc2)c1=O | > 20 | > 20
COC(=O)C1=C(C)NC(C)=C(C(=O)OCCCN2CCC(c3ccccc3)(c3ccccc3)CC2)C1c1cccc([N+](=O)[O-])c1 (stereo not given) | > 20 | > 20
CNS(=O)(=O)CCc1ccc2[nH]cc(C3CCN(C)CC3)c2c1 | > 20 | > 20
NCC(=O)c1ccccc1 | > 20 | > 20
CN(C)CCN(Cc1cccs1)c1ccccn1 | > 20 | > 20
CC12CCC3C(CC=C4CC(OS(=O)(=O)O)CCC43C)C1CCC2=O (stereo not given) | > 20 | > 20
CC(C)C[C@H](NC(=O)OCC1c2ccccc2-c2ccccc21)C(=O)O | > 20 | > 20
CC12CCC(=O)C=C1CCC1C2C(=O)CC2(C)C1CCC2(O)C(=O)CO (stereo not given) | > 20 | > 20
CNc1ccccc1C(=O)O | > 20 | > 20
CC1=C(CC(=O)O)c2cc(F)ccc2/C1=C\c1ccc([S+](C)[O-])cc1 (stereo not given) | > 20 | > 20
CCCCCCCCCCCCCCCC(=O)OCC(NC(=O)C(Cl)Cl)C(O)c1ccc([N+](=O)[O-])cc1 (stereo not given) | > 20 | > 20
COC(=O)C1=COC(C)C2CN3CCc4c([nH]c5ccccc45)C3CC12 (stereo not given) | > 20 | > 20
CCN1CC2CN(C)CC(C1)C2OC(=O)c1ccc(Cl)cc1 (stereo not given) | > 20 | > 20
CC(C)(C)c1cc2c(cc1Cl)C=C(C(=O)O)C(C(F)(F)F)O2 (stereo not given) | > 20 | > 20
Nc1ncnc2c1ncn2C1OC(COP(=O)(O)O)C(O)C1O (stereo not given) | > 20 | > 20
CC12CCC(C[N+](C)(CCC[N+](C)(C)C)C1)C2(C)C (stereo not given) | > 20 | > 20
O=c1oc2cc(O)ccc2c2ccc(O)cc12 | > 20 | > 20
NC(=O)NC(CCC(=O)O)C(=O)O (stereo not given) | > 20 | > 20
Nc1nc(O)c2c(n1)NCC(CNc1ccc(C(=O)N[C@@H](CCC(=O)O)C(=O)O)cc1)N2 (stereo not given in full) | > 20 | > 20
OC1CCCCC1N1CCC(c2ccccc2)CC1 (stereo not given) | > 20 | > 20
CCN(CC)CCOC(c1ccccc1)c1ccccc1 | > 20 | > 20
CCCCCCCC(=O)N[C@H](CN1CCCC1)[C@H](O)c1ccc2c(c1)OCCO2 | > 20 | > 20
C=C(C)[C@@H]1[C@H]2OC(=O)[C@H]1[C@]1(O)C[C@H]3O[C@]34C(=O)O[C@H]2[C@]14C | > 20 | > 20
CCNC(=O)C[C@H]1N=C(c2ccc(Cl)cc2)c2cc(OC)ccc2-n2c(C)nnc21 | > 20 | > 20

SMILES | IC50 [µM] | IC50 (read-out: pIC50 (converted)) [µM]
CN1CCc2cc3c(c4c2[C@@H]1Cc1ccccc1-4)OCO3 | > 20 | > 20
CC(C)(C)C#Cc1cc(N(C(=O)[C@H]2CC[C@H](C)CC2)[C@H]2CC[C@@H](O)CC2)c(C(=O)O)s1 | > 20 | > 20
O=C(O)COc1ccc(C(=O)c2cccs2)c(Cl)c1Cl | > 20 | > 20
NCCCCCCN | > 20 | > 20
COC(=O)CCC(C)C1CCC2C3CC[C@@H]4C[C@H](O)CC[C@]4(C)C3C[C@H](O)[C@]12C (stereo not given in full) | > 20 | > 20
CC(=O)S[C@@H]1CC2=CC(=O)CCC2(C)C2CCC3(C)C(CC[C@@]34CCC(=O)O4)C21 (stereo not given in full) | > 20 | > 20
COc1ccc2c3c1O[C@H]1[C@@H](OC(C)=O)C=C[C@H]4[C@@H](C2)N(C)CC[C@@]341 | > 20 | > 20
N#Cc1cc2c(OCC(O)CN3CCN(C(c4ccccc4)c4ccccc4)CC3)cccc2[nH]1 (stereo not given) | > 20 | > 20
CCC(=O)OCC(=O)[C@@]1(OC(=O)CC)C(C)CC2C3CCC4=CC(=O)C=CC4(C)[C@@]3(Cl)C(O)CC21C (stereo not given in full) | > 20 | > 20
O=C1Nc2ccc(Cl)cc2C(/C=C/C2CC2)(C(F)(F)F)N1 (stereo not given) | > 20 | > 20
NC(=O)CN1CCCC1=O | > 20 | > 20
CC(=O)OC[C@H]1O[C@@H](S)[C@H](OC(C)=O)[C@@H](OC(C)=O)[C@@H]1OC(C)=O | > 20 | > 20
NC(=O)C1CC2(NC(=O)NC2=O)c2cc(F)ccc2O1 (stereo not given) | > 20 | > 20
O=C(NC(CO)C(O)c1ccc([N+](=O)[O-])cc1)C(Cl)Cl (stereo not given) | > 20 | > 20
COc1ccc(/C=C/C(=O)Nc2ccccc2C(=O)O)cc1OC | > 20 | > 20
CCn1cnc(C(=O)NC)c1C(=O)NC | > 20 | > 20
CC(=O)OCC(=O)[C@@]1(O)CCC2C3CCC4=CC(=O)CCC4(C)C3C(O)CC21C (stereo not given in full) | > 20 | > 20
CC(=O)OC1CC2CCC3C(CCC4(C)C3CC(N3CC[N+](C)(C)CC3)C4OC(C)=O)C2(C)CC1N1CC[N+](C)(C)CC1 (stereo not given) | > 20 | > 20
CNc1ccc(-c2ccc3cc(OC[C@H](O)CF)ccc3n2)cc1 | > 20 | > 20
CC1=CCC2C3Cc4ccc(O)c5c4C2(CCN3C)C1O5 (stereo not given) | > 20 | > 20
CCCN1CCCC2Cc3nc(N)ncc3CC21 (stereo not given) | > 20 | > 20
[2H]c1c([2H])c(-c2ccc(F)cc2F)c([2H])c(C(=O)O)c1O | > 20 | > 20
CC12CCC(=O)C=C1CCC1C2CCC2(C)C1CC[C@H]2O (stereo not given in full) | > 20 | > 20
O=C(O)[C@H]1CCCC[C@]1(O)c1ccccc1 | > 20 | > 20
CC#CC(=O)N1CCC[C@@H]1c1nc(-c2ccc(C(=O)Nc3ccccn3)cc2)c2c(N)nccn12 | > 20 | > 20
C[C@@H](CC(C(N)=O)(c1ccccc1)c1ccccc1)N(C)C | > 20 | > 20
Cn1cc(Nc2nccc(N3CC4CCC(C3)N4C(=O)[C@@H]3CC3(F)F)n2)cn1 | > 20 | > 20

SMILES | IC50 [µM] | IC50 (read-out: pIC50 (converted)) [µM]
COCCOC(=O)C1=C(C)NC(C)=C(C(=O)OCC=Cc2ccccc2)C1c1cccc([N+](=O)[O-])c1 (stereo not given) | > 20 | > 20
CC(C)NCC(O)c1ccc([N+](=O)O)cc1 (stereo not given) | > 20 | > 20
C#CCC/C(O)=C(\C#N)C(=O)Nc1ccc(C(F)(F)F)cc1 | > 20 | > 20
C[C@]12CC[C@H](O)C[C@@H]1CC[C@@H]1C2CC[C@]2(C)[C@@H](C3=CC(=O)OC3)CC[C@]12O (stereo not given in full) | > 20 | > 20
O[C@H]1[C@H](O)[C@@H](O)O[C@H]2COC(c3ccccc3)O[C@H]12 (stereo not given in full) | > 20 | > 20
CCC[N+]12C3C[C@@H]([C@H](CC)[C@H]1O)[C@H]1[C@H](O)[C@]4(C[C@@H]12)c1ccccc1N(C)[C@@H]34 | > 20 | > 20
CC/C(=C(\c1ccc(OCCN(C)C)cc1)c1cccc(O)c1)c1ccccc1 | > 20 | > 20
CN1CC(CN(CCN=[N+]=[N-])S(C)(=O)=O)=CC2c3cccc4[nH]cc(c34)CC21 (stereo not given) | > 20 | > 20
CCN(CC)CC/C(=N\OC(=O)Nc1ccc(OC)cc1)c1ccccc1 | > 20 | > 20
COC1CCC2(C)C(=CCC3C2CCC2(C)C(C(C)=O)CCC32)C1 (stereo not given) | > 20 | > 20
O=C1CCCN1CC1CCN(c2ccnc(C(F)(F)F)n2)CC1 | > 20 | > 20
CC(C)OC(=O)[C@H](C)N[P@](=S)(OC[C@H]1O[C@@H](n2ccc(=O)[nH]c2=O)[C@](C)(O)[C@@H]1O)Oc1ccccc1 | > 20 | > 20
NC(=O)OC[C@@H](N)Cc1ccccc1 | > 20 | > 20
CC(CCC(=O)NCCS(=O)(=O)O)C1CCC2C3C[C@H](O)[C@@H]4C[C@H](O)CC[C@]4(C)C3CC[C@]12C (stereo not given in full) | > 20 | > 20
NC(=O)OC[C@H](O)c1ccccc1Cl | > 20 | > 20
CCCCC(C)(O)C/C=C/C1C(O)CC(=O)C1CC/C=C/CCC(=O)OC (stereo not given) | > 20 | > 20
O=C1CCN2C(=C1C(=O)NC1CCN(CCCn3c(=O)[nH]c4ccccc43)CC1)Nc1ccccc12 | > 20 | > 20
CCn1c(=Cc2cccc[n+]2CC)sc(=C2Sc3ccccc3N2C)c1=O | > 20 | > 20
NC(C(=O)NC1C(=O)N2C(C(=O)O)=C(CSc3c[nH]nn3)CSC12)c1ccc(O)cc1 (stereo not given) | > 20 | > 20
CN1CCN2c3ccccc3Cn3cccc3[C@@H]2C1 | > 20 | > 20
C[C@H]1CCC[C@H](C)N1CCCCNC(=O)C(Oc1ccccc1)c1ccccc1 (stereo not given in full) | > 20 | > 20
C[C@@]1(c2nc3cccc(C(N)=O)c3[nH]2)CCCN1 | > 20 | > 20
CC12C=CC(=O)C=C1CCC1C2CCC2(C)C(O)CCC12 (stereo not given) | > 20 | > 20
CC(=O)OCC(=O)[C@@]1(O)[C@H](C)CC2C3CCC4=CC(=O)C=CC4(C)[C@@]3(F)C(O)CC21C (stereo not given in full) | > 20 | > 20
CC(=O)OCC(=O)[C@@]1(O)CCC2C3C[C@H](C)C4=CC(=O)C=CC4(C)C3C(O)CC21C (stereo not given in full) | > 20 | > 20
N[C@@]1(C(=O)O)CC[C@H]2[C@H](C(=O)O)[C@H]21 | > 20 | > 20
